Molecular target: T1, BRM (Homo sapiens, UniProt P51531)
T1 construct: In-Cell Western Screen of BRM Degradation in SW1573 Cells; endogenous in cells; host or cells: SW1573
Assay: In-cell Western screen of BRM degradation in SW1573 cells (Dmax and DC50)
Format: cell-based
Settings: for Dmax: SW1573, read-out: BRM Dmax (%); for DC50: target protein degradation, read-out: BRM DC50
Outline: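 Overnight compound treatment (18-20 h, final DMSO 0.1%) of SW1573 cells in DMEM with 10% FBS precedes fixation and in-cell Western staining with 800/680 nm dye-labelled secondaries. Plate images give DC50 and maximal degradation.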

[1] = % degraded, when tested at the top concentration of between 0.3 and 10 μM

T1 sequence (P51531 whole entry): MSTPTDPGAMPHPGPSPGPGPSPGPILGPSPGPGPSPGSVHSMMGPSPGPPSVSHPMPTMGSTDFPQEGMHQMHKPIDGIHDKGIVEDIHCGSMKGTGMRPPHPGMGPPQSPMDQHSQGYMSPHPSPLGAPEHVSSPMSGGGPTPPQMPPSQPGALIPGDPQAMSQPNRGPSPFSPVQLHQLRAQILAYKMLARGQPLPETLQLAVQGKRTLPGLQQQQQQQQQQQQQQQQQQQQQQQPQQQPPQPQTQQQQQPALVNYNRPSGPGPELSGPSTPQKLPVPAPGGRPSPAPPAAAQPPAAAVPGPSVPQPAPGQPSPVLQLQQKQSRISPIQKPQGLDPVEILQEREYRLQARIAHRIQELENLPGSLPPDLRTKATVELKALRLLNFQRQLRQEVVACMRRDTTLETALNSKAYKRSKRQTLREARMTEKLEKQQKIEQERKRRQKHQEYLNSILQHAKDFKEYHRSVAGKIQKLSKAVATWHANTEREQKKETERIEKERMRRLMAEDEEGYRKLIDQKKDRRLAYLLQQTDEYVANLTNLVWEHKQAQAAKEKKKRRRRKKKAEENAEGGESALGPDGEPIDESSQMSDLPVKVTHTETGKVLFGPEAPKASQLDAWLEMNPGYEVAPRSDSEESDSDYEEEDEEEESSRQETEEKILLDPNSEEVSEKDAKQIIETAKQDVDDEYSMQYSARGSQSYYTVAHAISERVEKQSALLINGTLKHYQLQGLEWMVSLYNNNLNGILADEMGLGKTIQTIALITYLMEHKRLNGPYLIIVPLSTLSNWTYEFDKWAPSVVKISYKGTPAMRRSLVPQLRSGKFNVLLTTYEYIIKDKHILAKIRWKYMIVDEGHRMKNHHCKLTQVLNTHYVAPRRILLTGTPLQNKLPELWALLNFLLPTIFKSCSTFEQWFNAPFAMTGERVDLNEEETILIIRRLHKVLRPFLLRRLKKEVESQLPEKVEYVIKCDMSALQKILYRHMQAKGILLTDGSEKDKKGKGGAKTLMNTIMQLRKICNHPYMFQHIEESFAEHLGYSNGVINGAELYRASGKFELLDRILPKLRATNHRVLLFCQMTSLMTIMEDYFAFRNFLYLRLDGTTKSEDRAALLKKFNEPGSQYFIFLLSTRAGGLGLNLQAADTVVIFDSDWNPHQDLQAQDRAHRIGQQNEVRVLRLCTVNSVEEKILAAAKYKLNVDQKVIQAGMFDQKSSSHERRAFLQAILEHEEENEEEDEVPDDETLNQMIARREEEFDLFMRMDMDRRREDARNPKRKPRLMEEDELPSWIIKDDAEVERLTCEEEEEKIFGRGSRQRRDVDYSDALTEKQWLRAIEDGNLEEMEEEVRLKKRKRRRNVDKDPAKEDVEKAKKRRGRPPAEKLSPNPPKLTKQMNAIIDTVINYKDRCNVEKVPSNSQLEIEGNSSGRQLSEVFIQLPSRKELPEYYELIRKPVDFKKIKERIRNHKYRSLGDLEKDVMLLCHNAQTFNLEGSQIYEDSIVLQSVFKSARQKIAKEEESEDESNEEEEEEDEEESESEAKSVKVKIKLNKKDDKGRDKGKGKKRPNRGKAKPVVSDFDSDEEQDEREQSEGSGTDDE

Structure (SMILES) | Dmax [1] | DC50 | BRM Dmax (%) [1]
Cc1ncsc1-c1ccc([C@H](C)NC(=O)[C@@H]2C[C@@H](O)CN2C(=O)[C@@H](c2cc(OCCN3CCC(O[C@H]4C[C@H](Oc5cc(N6C7CCC6CN(c6cc(-c8ccccc8O)nnc6N)C7)ccn5)C4)CC3)no2)C(C)C)nc1 [compound 368, (2S,4R)-1-((2R)-2-(3-(2-(4-((1r,3R)-3-((4-(3-(3-amino-6-(2-hydroxyphenyl)pyridazin-4-yl)-3,8-diazabicyclo[3.2.1]octan-8-yl)pyridin-2-yl)oxy)cyclobutoxy)piperidin-1-yl)ethoxy)isoxazol-5-yl)-3-methylbutanoyl)-4-hydroxy-N-((S)-1-(5-(4-methylthiazol-5-yl)pyridin-2-yl)ethyl)pyrrolidine-2-carboxamide] | > 75% | < 2.5 nM | 
Cc1ncsc1-c1ccc([C@H](C)NC(=O)[C@@H]2C[C@@H](O)CN2C(=O)[C@H](c2cc(OC3CN(CCN4CCC(O[C@H]5C[C@H](Oc6cc(N7C8CCC7CN(c7cc(-c9ccccc9O)nnc7N)C8)ccn6)C5)CC4)C3)no2)C(C)C)cc1 [compound 370, (2S,4R)-1-((2S)-2-(3-((1-(2-(4-((1r,3r)-3-((4-(3-(3-amino-6-(2-hydroxyphenyl)pyridazin-4-yl)-3,8-diazabicyclo[3.2.1]octan-8-yl)pyridin-2-yl)oxy)cyclobutoxy)piperidin-1-yl)ethyl)azetidin-3-yl)oxy)isoxazol-5-yl)-3-methylbutanoyl)-4-hydroxy-N-((S)-1-(4-(4-methylthiazol-5-yl)phenyl)ethyl)pyrrolidine-2-carboxamide] | > 75% | 10 to 30 nM | 
Cc1ncsc1-c1ccc([C@H](C)NC(=O)[C@@H]2C[C@@H](O)CN2C(=O)[C@@H](c2cc(OC3CN(CCN4CCC(O[C@H]5C[C@H](Oc6cc(N7C8CCC7CN(c7cc(-c9ccccc9O)nnc7N)C8)ccn6)C5)CC4)C3)no2)C(C)C)cc1 [compound 371, (2S,4R)-1-((2R)-2-(3-((1-(2-(4-((1r,3r)-3-((4-(3-(3-amino-6-(2-hydroxyphenyl)pyridazin-4-yl)-3,8-diazabicyclo[3.2.1]octan-8-yl)pyridin-2-yl)oxy)cyclobutoxy)piperidin-1-yl)ethyl)azetidin-3-yl)oxy)isoxazol-5-yl)-3-methylbutanoyl)-4-hydroxy-N-((S)-1-(4-(4-methylthiazol-5-yl)phenyl)ethyl)pyrrolidine-2-carboxamide] | > 75% | < 2.5 nM | 
CC(C)[C@H](C(=O)N1C[C@H](O)C[C@H]1C(=O)N[C@@H](C)c1ccc(-n2ccccc2=O)cc1)c1cc(OCCN2CCC(O[C@H]3C[C@H](Oc4cc(N5C6CCC5CN(c5cc(-c7ccccc7O)nnc5N)C6)ccn4)C3)CC2)no1 [compound 372, (2S,4R)-1-((2S)-2-(3-(2-(4-((1r,3S)-3-((4-(3-(3-amino-6-(2-hydroxyphenyl)pyridazin-4-yl)-3,8-diazabicyclo[3.2.1]octan-8-yl)pyridin-2-yl)oxy)cyclobutoxy)piperidin-1-yl)ethoxy)isoxazol-5-yl)-3-methylbutanoyl)-4-hydroxy-N-((S)-1-(4-(2-oxopyridin-1(2H)-yl)phenyl)ethyl)pyrrolidine-2-carboxamide] | > 75% | > 30 nM | 
CC(C)[C@@H](C(=O)N1C[C@H](O)C[C@H]1C(=O)N[C@@H](C)c1ccc(-n2ccccc2=O)cc1)c1cc(OCCN2CCC(O[C@H]3C[C@H](Oc4cc(N5C6CCC5CN(c5cc(-c7ccccc7O)nnc5N)C6)ccn4)C3)CC2)no1 [compound 373, (2S,4R)-1-((2R)-2-(3-(2-(4-((1r,3R)-3-((4-(3-(3-amino-6-(2-hydroxyphenyl)pyridazin-4-yl)-3,8-diazabicyclo[3.2.1]octan-8-yl)pyridin-2-yl)oxy)cyclobutoxy)piperidin-1-yl)ethoxy)isoxazol-5-yl)-3-methylbutanoyl)-4-hydroxy-N-((S)-1-(4-(2-oxopyridin-1(2H)-yl)phenyl)ethyl)pyrrolidine-2-carboxamide] |  | > 30 nM | 
Cc1ncsc1-c1ccc([C@H](C)NC(=O)[C@@H]2C[C@@H](O)CN2C(=O)[C@@H](c2cc(OCCN3CCC(N4CC(Oc5cc(N6C7CCC6CN(c6cc(-c8ccccc8O)nnc6N)C7)ccn5)C4)CC3)no2)C(C)C)cc1 [compound 374, (2S,4R)-1-((2R)-2-(3-(2-(4-(3-((4-(3-(3-amino-6-(2-hydroxyphenyl)pyridazin-4-yl)-3,8-diazabicyclo[3.2.1]octan-8-yl)pyridin-2-yl)oxy)azetidin-1-yl)piperidin-1-yl)ethoxy)isoxazol-5-yl)-3-methylbutanoyl)-4-hydroxy-N-((S)-1-(4-(4-methylthiazol-5-yl)phenyl)ethyl)pyrrolidine-2-carboxamide] | > 75% | > 30 nM | 
Cc1cnc(C)n1-c1ccc([C@H](C)NC(=O)[C@@H]2C[C@@H](O)CN2C(=O)[C@H](c2cc(OCCN3CCC(O[C@H]4C[C@H](Oc5cc(N6C7CCC6CN(c6cc(-c8ccccc8O)nnc6N)C7)ccn5)C4)CC3)no2)C(C)C)cc1 [compound 375, (2S,4R)-1-((2S)-2-(3-(2-(4-((1r,3S)-3-((4-(3-(3-amino-6-(2-hydroxyphenyl)pyridazin-4-yl)-3,8-diazabicyclo[3.2.1]octan-8-yl)pyridin-2-yl)oxy)cyclobutoxy)piperidin-1-yl)ethoxy)isoxazol-5-yl)-3-methylbutanoyl)-N-((S)-1-(4-(2,5-dimethyl-1H-imidazol-1-yl)phenyl)ethyl)-4-hydroxypyrrolidine-2-carboxamide] |  | > 30 nM | 
Cc1cnc(C)n1-c1ccc([C@H](C)NC(=O)[C@@H]2C[C@@H](O)CN2C(=O)[C@@H](c2cc(OCCN3CCC(O[C@H]4C[C@H](Oc5cc(N6C7CCC6CN(c6cc(-c8ccccc8O)nnc6N)C7)ccn5)C4)CC3)no2)C(C)C)cc1 [compound 376, (2S,4R)-1-((2R)-2-(3-(2-(4-((1r,3R)-3-((4-(3-(3-amino-6-(2-hydroxyphenyl)pyridazin-4-yl)-3,8-diazabicyclo[3.2.1]octan-8-yl)pyridin-2-yl)oxy)cyclobutoxy)piperidin-1-yl)ethoxy)isoxazol-5-yl)-3-methylbutanoyl)-N-((S)-1-(4-(2,5-dimethyl-1H-imidazol-1-yl)phenyl)ethyl)-4-hydroxypyrrolidine-2-carboxamide] | > 75% | 10 to 30 nM | 
Cc1n[nH]c(C)c1-c1ccc([C@H](C)NC(=O)[C@@H]2C[C@@H](O)CN2C(=O)[C@H](c2cc(OCCN3CCC(O[C@H]4C[C@H](Oc5cc(N6C7CCC6CN(c6cc(-c8ccccc8O)nnc6N)C7)ccn5)C4)CC3)no2)C(C)C)cc1 [compound 377, (2S,4R)-1-((2S)-2-(3-(2-(4-((1r,3S)-3-((4-(3-(3-amino-6-(2-hydroxyphenyl)pyridazin-4-yl)-3,8-diazabicyclo[3.2.1]octan-8-yl)pyridin-2-yl)oxy)cyclobutoxy)piperidin-1-yl)ethoxy)isoxazol-5-yl)-3-methylbutanoyl)-N-((S)-1-(4-(3,5-dimethyl-1H-pyrazol-4-yl)phenyl)ethyl)-4-hydroxypyrrolidine-2-carboxamide] | > 75% | 10 to 30 nM | 
Cc1n[nH]c(C)c1-c1ccc([C@H](C)NC(=O)[C@@H]2C[C@@H](O)CN2C(=O)[C@@H](c2cc(OCCN3CCC(O[C@H]4C[C@H](Oc5cc(N6C7CCC6CN(c6cc(-c8ccccc8O)nnc6N)C7)ccn5)C4)CC3)no2)C(C)C)cc1 [compound 378, (2S,4R)-1-((2R)-2-(3-(2-(4-((1r,3R)-3-((4-(3-(3-amino-6-(2-hydroxyphenyl)pyridazin-4-yl)-3,8-diazabicyclo[3.2.1]octan-8-yl)pyridin-2-yl)oxy)cyclobutoxy)piperidin-1-yl)ethoxy)isoxazol-5-yl)-3-methylbutanoyl)-N-((S)-1-(4-(3,5-dimethyl-1H-pyrazol-4-yl)phenyl)ethyl)-4-hydroxypyrrolidine-2-carboxamide] | > 75% | < 2.5 nM | 
Cc1ncsc1-c1ccc([C@H](C)NC(=O)[C@@H]2C[C@@H](O)CN2C(=O)[C@H](c2cc(C#CCN3CCC(OC4CC(Oc5cc(N6C7CC[C@@H]6CN(c6cc(-c8ccccc8O)nnc6N)C7)ccn5)C4)CC3)no2)C(C)C)cc1 (stereo partly drawn) [compound 379, (2S,4R)-1-((2S)-2-(3-(3-(4-((1r,3S)-3-((4-(3-(3-amino-6-(2-hydroxyphenyl)pyridazin-4-yl)-3,8-diazabicyclo[3.2.1]octan-8-yl)pyridin-2-yl)oxy)cyclobutoxy)piperidin-1-yl)prop-1-yn-1-yl)isoxazol-5-yl)-3-methylbutanoyl)-4-hydroxy-N-((S)-1-(4-(4-methylthiazol-5-yl)phenyl)ethyl)pyrrolidine-2-carboxamide] |  | > 30 nM | 
Cc1ncsc1-c1ccc([C@H](C)NC(=O)[C@@H]2C[C@@H](O)CN2C(=O)[C@@H](c2cc(C#CCN3CCC(O[C@H]4C[C@H](Oc5cc(N6C7CCC6CN(c6cc(-c8ccccc8O)nnc6N)C7)ccn5)C4)CC3)no2)C(C)C)cc1 [compound 380, (2S,4R)-1-((2R)-2-(3-(3-(4-((1r,3R)-3-((4-(3-(3-amino-6-(2-hydroxyphenyl)pyridazin-4-yl)-3,8-diazabicyclo[3.2.1]octan-8-yl)pyridin-2-yl)oxy)cyclobutoxy)piperidin-1-yl)prop-1-yn-1-yl)isoxazol-5-yl)-3-methylbutanoyl)-4-hydroxy-N-((S)-1-(4-(4-methylthiazol-5-yl)phenyl)ethyl)pyrrolidine-2-carboxamide] | > 75% | < 2.5 nM | 
Cc1ncsc1-c1ccc([C@H](C)NC(=O)[C@@H]2C[C@@H](O)CN2C(=O)[C@H](c2cc(OCC#CC34CC(CNC5CC(Oc6cc(N7C8CC[C@@H]7CN(c7cc(-c9ccccc9O)nnc7N)C8)ccn6)C5)(C3)C4)no2)C(C)C)cc1 (stereo partly drawn) [compound 381, (2S,4R)-1-((2S)-2-(3-((3-(3-((((1r,3S)-3-((4-(3-(3-amino-6-(2-hydroxyphenyl)pyridazin-4-yl)-3,8-diazabicyclo[3.2.1]octan-8-yl)pyridin-2-yl)oxy)cyclobutyl)amino)methyl)bicyclo[1.1.1]pentan-1-yl)prop-2-yn-1-yl)oxy)isoxazol-5-yl)-3-methylbutanoyl)-4-hydroxy-N-((S)-1-(4-(4-methylthiazol-5-yl)phenyl)ethyl)pyrrolidine-2-carboxamide] |  | 10 to 30 nM | A (A > 75)

From patent publication US12539292B2, “BRM targeting compounds and associated methods of use” (Arvinas Operations, Inc., priority 2018, dated 2026)
